pIC50: −log10 of the molar value. Read-outs that look alike come from different tables or passages of the source.
Assays:
[1] = target: T1, ETB (Rattus norvegicus, UniProt P21451)
T1 sequence (P21451 27-442): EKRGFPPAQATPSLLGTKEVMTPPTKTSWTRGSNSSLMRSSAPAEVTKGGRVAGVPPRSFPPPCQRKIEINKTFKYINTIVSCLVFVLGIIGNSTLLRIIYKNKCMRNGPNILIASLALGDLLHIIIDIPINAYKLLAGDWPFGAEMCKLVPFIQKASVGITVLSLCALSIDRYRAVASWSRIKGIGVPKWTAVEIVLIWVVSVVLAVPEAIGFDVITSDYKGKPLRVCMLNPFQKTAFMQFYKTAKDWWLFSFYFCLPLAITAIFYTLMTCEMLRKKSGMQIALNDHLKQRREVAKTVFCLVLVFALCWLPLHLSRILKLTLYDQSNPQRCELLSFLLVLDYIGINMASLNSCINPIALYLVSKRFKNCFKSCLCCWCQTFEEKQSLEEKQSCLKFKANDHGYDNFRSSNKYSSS
Experimental: The tissue is made up of 20 mM tris(hydroxymethyl)aminomethane hydrochloride (Trizma) buffer, 2 mM ethylenediaminetetra acetate, 100 μM phenylmethylsulfonyl fluoride.
First, thaw one aliquot of frozen rat cerebellar membranes (2 mg protein in 0.5 mL). Next, add 0.5 mL membrane aliquot to 4.5 mL cold tissue buffer, polytron at 7,500 revolutions per minute for 10 seconds. Finally, dilute tissue suspension 1/100 (0.1 mL suspension+9.9 mL tissue buffer), polytron again, and place ice.
Mix in 150 μL of tissue to each tube, vortex briefly, then tap to force all liquids to bottom (total assay volume=250 μL). Then place the tubes in a 37° C. water bath for 2 hours.
Add 2.5 mL cold wash buffer (50 mM Trizma buffer) to each tube, filter, and then wash tube with additional 2.5 mL wash buffer and add to filter. Finally, wash filters with an additional 2.5 mL of cold wash buffer.
Count filters for radioactivity in gamma counter.

[2] = target: T2, ETA (Oryctolagus cuniculus, UniProt A5A8K3)
T2 sequence (A5A8K3 21-427): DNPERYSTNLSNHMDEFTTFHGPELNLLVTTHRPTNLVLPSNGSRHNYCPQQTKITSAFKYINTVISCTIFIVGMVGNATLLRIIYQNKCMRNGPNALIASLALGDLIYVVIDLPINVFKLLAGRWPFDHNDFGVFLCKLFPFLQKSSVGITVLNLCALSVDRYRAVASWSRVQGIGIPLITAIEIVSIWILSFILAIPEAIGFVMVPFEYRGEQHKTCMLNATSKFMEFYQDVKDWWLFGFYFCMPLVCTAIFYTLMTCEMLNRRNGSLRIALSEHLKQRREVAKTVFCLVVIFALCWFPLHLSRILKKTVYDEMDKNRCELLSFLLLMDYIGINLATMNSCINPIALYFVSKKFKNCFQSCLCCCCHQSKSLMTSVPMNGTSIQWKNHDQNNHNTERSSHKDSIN

[3] = target: T2, ETA; remark: listed apart in the source
[4] = target: T2, ETA; experiment: VERA-A: antagonism of ET-1 stimulated vasoconstriction in the rabbit femoral artery (ETA); type: cell-based
Experimental: Male New Zealand rabbits were killed by cervical dislocation and exsanguination. Femoral and pulmonary arteries were isolated, cleaned of connective tissue, and cut into 4-mm rings. The endothelium was denuded by placing the rings over hypodermic tubing (32 gauge for femoral rings and 28 gauge for pulmonary rings, Small Parts, Inc, Miami, Fla.) and gently rolling them. […] Resting tension was adjusted to 3.0 g for femoral and 4.0 g pulmonary arteries; the rings were left for 90 minutes to equilibrate.

[5] = target: T3, human ETB receptor (Homo sapiens, UniProt P24530); experiment: ERBA-B: [125I]-ET-1 binding, recombinant human ETB receptor expressed in CHO-K1 cells
T3 construct: expressed in transfected cells; host or cells: CHO-K1 cells, pRc-CMW (so in the source) expression vector, electroporation; membranes used
T3 sequence (P24530 27-442): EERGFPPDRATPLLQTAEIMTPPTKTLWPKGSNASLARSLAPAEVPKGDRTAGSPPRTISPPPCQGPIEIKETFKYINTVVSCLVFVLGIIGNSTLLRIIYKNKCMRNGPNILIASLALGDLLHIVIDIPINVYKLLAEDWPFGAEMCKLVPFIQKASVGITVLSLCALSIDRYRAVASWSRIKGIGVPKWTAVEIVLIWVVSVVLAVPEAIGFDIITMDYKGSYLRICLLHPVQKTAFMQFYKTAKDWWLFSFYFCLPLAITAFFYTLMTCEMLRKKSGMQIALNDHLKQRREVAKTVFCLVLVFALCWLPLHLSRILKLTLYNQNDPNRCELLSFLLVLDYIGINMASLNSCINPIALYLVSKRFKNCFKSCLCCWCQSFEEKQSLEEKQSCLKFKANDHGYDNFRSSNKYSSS

[6] = ERBA-A IC50, [125I]-ET-1, rabbit renal artery vascular smooth muscle cells
[7] = ET-1, rabbit femoral artery, read-out: VERA-A pA2 (converted)
[8] = human cloned ETB receptor, read-out: ERBA-B IC50, human cloned receptor data
[9] = read-out: ERBA-A IC50, [125I]-ET-1, rabbit renal artery vascular smooth muscle cells
[10] = read-out: AAR-A, ET-1 (0.3 nM) stimulated arachidonic acid release

| SMILES | pIC50 [1] | pIC50 [2, 6] | pIC50 [3] | Kb [4, 7] [nM] | pIC50 [5, 8] | VERA-A pA2 ([4]; ET-1, rabbit femoral artery) | pIC50 [2, 9] | pIC50 [3, 10] | pIC50 ([5]; ERBA-B IC50, human cloned receptor data) | Kb [4] [nM] |
| --- | --- | --- | --- | --- | --- | --- | --- | --- | --- | --- |
| COc1ccc(C2(O)OC(=O)C(c3ccc4c(c3)OCO4)=C2Cc2cccc(Cl)c2)cc1 (centres unmarked) [Example 75, 3-Benzo[1,3]dioxol-5-yl-4-(3-chlorobenzyl)-5-hydroxy-5-(4-methoxyphenyl)-5H -furan-2-one] | 5.92 | 7.80 | 7.15 |  |  |  |  |  |  |  |
| COc1ccc(C2(O)OC(=O)C(c3ccc4c(c3)OCO4)=C2Cc2ccc(C)cc2)cc1 (centres unmarked) [Example 76] | 6.41 | 7.30 | 6.28 |  |  |  |  |  |  |  |
| COc1ccc(C2(O)OC(=O)C(c3ccc4c(c3)OCO4)=C2Cc2cccc(C(F)(F)F)c2)cc1 (centres unmarked) [Example 82, 3-Benzo[1,3]dioxol-5-yl-5-hydroxy-5-(4-methoxyphenyl)-4-(3-trifluoromethylbenzyl)-5H-furan-2-one] | 5.89 | 7.70 | 6.85 | 2510 |  |  |  |  |  |  |
| COc1ccc(C2(O)OC(=O)C(c3ccc4c(c3)OCO4)=C2Cc2ccc(N(C)C)cc2)cc1 (centres unmarked) [Example 85, 3-Benzo[1,3]dioxol-5-yl-4-(4-dimethylaminobenzyl)-5-hydroxy-5-(4-methoxyphenyl)-5H-furan-2-one] |  | 7.64 | 6.70 | 398 | 5.80 |  |  |  |  |  |
| COc1ccc(C2(O)OC(=O)C(c3ccc4c(c3)OCO4)=C2Cc2ccc(OC)c(C)c2)cc1 (centres unmarked) [Example 89, 3-Benzo[1,3]dioxol-5-yl-5-hydroxy-4-(4-methoxy-3-methylbenzyl)-5-(4-methoxyphenyl)-5H-furan-2-one] |  |  |  |  |  | 6.3 | 8.22 | 7.41 |  |  |
| CCCOc1cccc(CC2=C(c3cc(OC)cc(OC)c3)C(=O)OC2(O)c2ccc(OC)cc2)c1 (centres unmarked) [Example 126, 3-(3,5-Dimethoxyphenyl)-5-hydroxy-5-(4-methoxyphenyl)-4-(3-propoxybenzyl)-5 H-furan-2-one] |  | 8.00 | 7.07 | 200 | 5.82 |  |  |  |  |  |
| COc1ccc(C2(O)OC(=O)C(c3cc(OC)cc(OC)c3)=C2Cc2cccc(Cl)c2)cc1 (centres unmarked) [Example 127, 4-(3-Chlorobenzyl)-3-(3,5-dimethoxyphenyl)-5-hydroxy-5-(4-methoxyphenyl)-5H -furan-2-one] |  | 7.89 | 6.82 | 631 | 5.92 |  |  |  |  |  |
| COc1ccc(C2(O)OC(=O)C(c3cc(OC)cc(OC)c3)=C2Cc2cccc(C(F)(F)F)c2)cc1 (centres unmarked) [Example 128, 3-(3,5-Dimethoxyphenyl)-5-hydroxy-5-(4-methoxyphenyl)-4-(3-trifluoromethylbenzyl)-5H-furan-2-one] |  | 7.64 | 6.68 | 1260 | 5.80 |  |  |  |  |  |
| COc1ccc(C2(O)OC(=O)C(c3cc(OC)cc(OC)c3)=C2Cc2cccc(OC)c2)cc1 (centres unmarked) [Example 130, 3-(3,5-Dimethoxyphenyl)-5-hydroxy-4-(3-methoxybenzyl)-5-(4-methoxyphenyl)-5 H-furan-2-one] |  | 7.01 | 7.52 | 200 | 5.92 |  |  |  |  |  |
| COc1ccc(C2(O)OC(=O)C(c3cc(OC)cc(OC)c3)=C2Cc2cccnc2)cc1 (centres unmarked) [Example 133, 3-(3,5-Dimethoxyphenyl)-5-hydroxy-5-(4-methoxyphenyl)-4-pyridin-3methyl-5H-furan-2-one] |  | 7.52 | 7.12 |  | 5.17 |  |  |  |  |  |
| CCCOc1cccc(CC2=C(c3ccc4c(c3)OCO4)C(=O)OC2(O)c2ccc(OC)cc2)c1 (centres unmarked) [Example 159, 3-Benzo[1,3]dioxol-5-yl-5-hydroxy-5-(4-methoxyphenyl)-4-(3-propoxybenzyl)-5 H-furan-2-one] | 6.25 | 7.92 | 7.44 | 100 |  |  |  |  |  |  |
| COC(=O)c1ccc(CC2=C(c3ccc4c(c3)OCO4)C(=O)OC2(O)c2ccc(OC)cc2)cc1 (centres unmarked) [Example 182, 4-[4-Benzo[1,3]dioxol-5-yl-2-hydroxy-2-(4-methoxyphenyl)-5-oxo-2,5-dihydrof uran-3-ylmethyl]benzoic acid methyl ester] |  | 7.80 | 7.30 |  | 5.70 |  |  |  |  |  |
| COc1ccc(C2(O)OC(=O)C(c3ccc4c(c3)OCO4)=C2Cc2ccccc2)cc1OC (centres unmarked) [Example 190, 3-Benzo[1,3]dioxol-5-yl-4-benzyl-5-(3,4-dimethoxyphenyl)-5-hydroxy-5H-furan-2-one] | 6.12 | 7.19 | 6.11 |  |  |  |  |  |  |  |
| COc1ccc(C2(O)OC(=O)C(c3ccc4c(c3)OCO4)=C2CC2CCCCC2)cc1 (centres unmarked) [Example 221, 3-Benzo[1,3]dioxol-5-yl-4-cyclohexylmethyl-5-hydroxy-5-(4-methoxyphenyl)-5H -furan-2-one] |  |  |  |  | 6.62 | 6.4 | 7.70 | 6.92 |  |  |
| COc1ccc(C(=O)/C(Cc2cc(OC)c(OC)c(OC)c2)=C(\C(=O)O)c2ccc3c(c2)OCO3)cc1 [Example 354, Sodium 2-Benzo[1,3]dioxol-5-yl-4-(4-methoxy-phenyl)-4-oxo-3-(3,4,5-trimethoxy-benzyl)-but-2-enoate] |  | 9.10 | > 9.00 |  |  |  |  |  | 6.04 | 31.6 |
| COc1ccc(C2(O)OC(=O)C(c3ccc4c(c3)OCO4)=C2Cc2cc(OC)c(OC)c(OC)c2)cc1C (centres unmarked) [Example 383, 3-Benzo[1,3]dioxol-5-yl-5-hydroxy-5-(4-methoxy-3-methyl-phenyl)-4-(3,4,5-trimethoxy-benzyl)-5H-furan-2-one] |  | 9.30 | 5.13 |  | 6.54 |  |  |  |  |  |
| COc1ccc(C2(O)OC(=O)C(c3ccc4c(c3)OCO4)=C2Cc2ccc(NC(C)=O)cc2)cc1C (centres unmarked) [Example 384, N-{4-[4-Benzo[1,3]dioxol-5-yl-2-hydroxy-2-(4-methoxy-3-methyl-phenyl)-5-oxo-2,5-dihydro-furan-3-ylmethyl]-phenyl}-acetamide] |  | 9.00 | 9.68 | 50.1 | 6.12 |  |  |  |  |  |
| COc1ccc(C2(O)OC(=O)C(c3cc(OC)cc(OC)c3)=C2Cc2cc(OC)c(OC)c(OC)c2)cc1 (centres unmarked) [Example 388, 3-(3,5-Dimethoxy-phenyl)-5-hydroxy-5-(4-methoxyphenyl)-4-(3,4,5-trimethoxy-benzyl)-5H-furan-2-one] |  | 8.85 | 9.59 | 100 | 5.96 |  |  |  |  |  |
| COc1ccc(C2(O)OC(=O)C(c3cc(OC)cc(OC)c3)=C2Cc2ccc(OC(C)C)c(OC)c2)cc1 (centres unmarked) [Example 389, 3-(3,5-Dimethoxy-phenyl)-5-hydroxy-4-(4-isopropoxy-3-methoxy-benzyl)-5-(4-methoxy-phenyl)-5H-furan-2-one] |  | 8.44 | 8.62 |  | 5.96 |  |  |  |  |  |
